# Assays:
# [1] = system: red blood cells; test: Red blood cell integrity during storage at 4° C.; assay type: cell-based; parameters: MCV Day 20 / MCV Day 33: unit not given here; conditions: for RBC Day 1: whole blood; for MCV Day 20 / MCV Day 33: whole blood stored at 4° C.
# Experimental: In this experiment whole blood (an aliquot of which clotted within 10 minutes without anticoagulant) was modified by adding a number of different anticoagulant compositions. Sodium citrate was used as an anticoagulant at 0.65%, 0.75% and 0.9% by weight. These are all higher citrate levels than the usual 0.4% by weight. Amino acid citrates (lysine or arginine) were used at 0.65%, 0.75% and 0.9% by weight based on the weight of the citric acid. The amino acid counterion was used in sufficient quantity to adjust the pH as explained above.
# To judge red cell condition the blood was counted and various other measurements were taken initially and after 20 and 33 days of storage at 4° C. Apparent initial/differences in RBC counts are due to dilution caused by adding extra anticoagulant. Mean cell volume (MCV) is a red cell index that is a useful measure of red cell health. […] It is believed that a citrate level of at least about 1.0% by weight (i.e., more than two times the usual amount) is necessary to ensure against all activation of plasma proteins. […] On the other hand, amino acid citrates, which are very effective anticoagulants, are also effective at preventing red cell damage.
# [2] = system: plasma proteins; test: Protein resistance to vortexing; conditions: for Alk. Phos / LDH / SGOT / SGPT / fIX / fV / fVIII / fibrinogen: plasma, Na citrate 0.4%, lysine citrate 2.0%; for Alkaline phosphatase, % of its initial value / LDH, % of initial value / SGOT, % of initial value / SGPT, % of initial value / factor IX, % of initial value / factor V, % of initial value / factor VIII, % of initial value / fibrinogen, % of initial value: sodium citrate 0.4%, lysine citrate 2%
# Experimental: As the basic anticoagulant experiments were carried out, additional advantages to the new anticoagulation system became apparent. The inventor has long believed that the effects of citrate on proteins, and in particular plasma proteins, goes beyond mere chelation of calcium. As mentioned above, citrate complexes with or otherwise potentiates the precipitation of plasma proteins. […] Soluble protein can be denatured by vigorous mixing and the resulting exposure to the air-water interfaces present in foam. […]. Two ten ml tubes of each plasma were prepared and held at room temperature for thirty minutes. A “pretreatment” sample (Pre) was removed from each tube and set aside. Then the tubes were subjected to vigorous mixing using a vortex (rotary) mixer for 30 min.
# […]. […] […].
# [3] = system: plasma proteins; test: Protein resistance to room temperature aging; conditions: Na citrate 0.4%, lysine citrate 2%
# Description: […]. In many cases heat treatments have been used to reduce or eliminated infectious agents from blood products. A problem with such an approach has been heat induced changes in the antigenicity of certain blood components. […]. A continuation of this experiment was set up to check also long term room temperature stability. It is generally believed that resistance to heat is an indicator of room temperature stability. That is the justification for estimating long term stability of products by using “accelerated” stability tests based on storage at an elevated temperature. In the presented experiment it is important to note that different plasma sample were used for the two different anticoagulants because a single sample was not large enough to provide sufficient volume for all of the tests over the life of the extended experiment.
# It was anticipated that protection against damage due to elevated temperature would also provide greater stability at room temperature. It will be appreciated that the need to rapidly freeze plasma to ensure stability and the need to freeze or refrigerate plasma for transport greatly complicates the use of plasma under situations of war or emergency or in developing countries where refrigeration may not be readily available. […] […]. […] […]. Although great effort is taken to ensure sterility of the plasma, any blood product procured by means of venipuncture may become contaminated by skin bacteria. […] […]. Those proteins that do lose activity decrease only slightly as compared to much more dramatic decreases in sodium citrate storage.
# [4] = after vortexing, 2% sodium citrate (similar experiment, data not shown)
smiles,measurement,setting,value
"O=C([O-])CC(O)(CC(=O)[O-])C(=O)[O-].[Na+].[Na+].[Na+] [Na Citrate, sodium citrate, reference compound]",RBC Day 1,[1]; anticoagulant 0.65 wgt %,5.43 10^6/μl
same,MCV Day 20,[1]; anticoagulant 0.65 wgt %,97.1
same,MCV Day 33,[1]; anticoagulant 0.65 wgt %,94.3
same,RBC Day 1,[1]; anticoagulant 0.75 wgt %,5.86 10^6/μl
same,MCV Day 20,[1]; anticoagulant 0.75 wgt %,98.7
same,MCV Day 33,[1]; anticoagulant 0.75 wgt %,103.2
same,RBC Day 1,[1]; anticoagulant 0.90 wgt %,6.07 10^6/μl
same,MCV Day 20,[1]; anticoagulant 0.90 wgt %,97.8
same,MCV Day 33,[1]; anticoagulant 0.90 wgt %,103.3
same,Alk. Phos,[2]; Post 30 min vortexing,15 IU/.L
same,LDH,[2]; Post 30 min vortexing,33 IU/L
same,SGOT,[2]; Post 30 min vortexing,1 IU/L
same,SGPT,[2]; Post 30 min vortexing,1 IU/L
same,fIX,[2]; Post 30 min vortexing,44%
same,fV,[2]; Post 30 min vortexing,21%
same,fVIII,[2]; Post 30 min vortexing,32%
same,fibrinogen,[2]; Post 30 min vortexing,106 mg/dL
same,Alk. Phos,[2]; Pre vortexing,27 IU/.L
same,LDH,[2]; Pre vortexing,100 IU/L
same,SGOT,[2]; Pre vortexing,15 IU/L
same,SGPT,[2]; Pre vortexing,29 IU/L
same,fIX,[2]; Pre vortexing,103%
same,fV,[2]; Pre vortexing,98%
same,fVIII,[2]; Pre vortexing,102%
same,fibrinogen,[2]; Pre vortexing,258 mg/dL
same,"LDH, % of the initial value",[2]; [4],48%
same,"SGOT, % of the initial value",[2]; [4],33%
same,"SGPT, % of the initial value",[2]; [4],32%
same,"alkaline phosphatase, % of the initial value",[2]; [4],80%
same,"factor IX, % of the initial value",[2]; [4],62%
same,"factor V, % of the initial value",[2]; [4],52%
same,"factor Viii, % of the initial value",[2]; [4],57%
same,"fibrinogen, % of the initial value",[2]; [4],69%
same,"Alkaline phosphatase, % of its initial value",[2]; after vortexing,55%
same,"LDH, % of initial value",[2]; after vortexing,33%
same,"SGOT, % of initial value",[2]; after vortexing,6.6%
same,"SGPT, % of initial value",[2]; after vortexing,3.4%
same,"factor IX, % of initial value",[2]; after vortexing,43%
same,"factor V, % of initial value",[2]; after vortexing,21%
same,"factor VIII, % of initial value",[2]; after vortexing,31%
same,"fibrinogen, % of initial value",[2]; after vortexing,4%
same,Alk. Phos,[3]; 0 days at room temperature,30 IU/.L
same,LDH,[3]; 0 days at room temperature,110 IU/L
same,SGOT,[3]; 0 days at room temperature,18 IU/L
same,SGPT,[3]; 0 days at room temperature,32 IU/L
same,fIX,[3]; 0 days at room temperature,104%
same,fV,[3]; 0 days at room temperature,98%
same,fVIII,[3]; 0 days at room temperature,109%
same,fibrinogen,[3]; 0 days at room temperature,206 mg/dL
same,Alk. Phos,[3]; 7 days at room temperature,29 IU/.L
same,LDH,[3]; 7 days at room temperature,111 IU/L
same,SGOT,[3]; 7 days at room temperature,18 IU/L
same,SGPT,[3]; 7 days at room temperature,30 IU/L
same,fIX,[3]; 7 days at room temperature,107%
same,fV,[3]; 7 days at room temperature,102%
same,fVIII,[3]; 7 days at room temperature,100%
same,fibrinogen,[3]; 7 days at room temperature,181 mg/dL
same,Alk. Phos,[3]; 14 days at room temperature,31 IU/.L
same,LDH,[3]; 14 days at room temperature,108 IU/L
same,SGOT,[3]; 14 days at room temperature,15 IU/L
same,SGPT,[3]; 14 days at room temperature,26 IU/L
same,fIX,[3]; 14 days at room temperature,93%
same,fV,[3]; 14 days at room temperature,102%
same,fVIII,[3]; 14 days at room temperature,92%
same,fibrinogen,[3]; 14 days at room temperature,173 mg/dL
same,Alk. Phos,[3]; 21 days at room temperature,28 IU/.L
same,LDH,[3]; 21 days at room temperature,103 IU/L
same,SGOT,[3]; 21 days at room temperature,12 IU/L
same,SGPT,[3]; 21 days at room temperature,20 IU/L
same,fIX,[3]; 21 days at room temperature,56%
same,fV,[3]; 21 days at room temperature,44%
same,fVIII,[3]; 21 days at room temperature,78%
same,fibrinogen,[3]; 21 days at room temperature,167 mg/dL
"NCCCC[C@H](N)C(=O)O.O=C(O)CC(O)(CC(=O)O)C(=O)O [Lysine Citrate, lysine citrate]",RBC Day 1,[1]; anticoagulant 0.65 wgt %,5.37 10^6/μl
same,MCV Day 20,[1]; anticoagulant 0.65 wgt %,93.0
same,MCV Day 33,[1]; anticoagulant 0.65 wgt %,93.8
same,RBC Day 1,[1]; anticoagulant 0.75 wgt %,6.78 10^6/μl
same,MCV Day 20,[1]; anticoagulant 0.75 wgt %,92.7
same,MCV Day 33,[1]; anticoagulant 0.75 wgt %,92.7
same,RBC Day 1,[1]; anticoagulant 0.90 wgt %,5.82 10^6/μl
same,MCV Day 20,[1]; anticoagulant 0.90 wgt %,92.2
same,MCV Day 33,[1]; anticoagulant 0.90 wgt %,92.9
same,Alk. Phos,[2]; Post 30 min vortexing,22 IU/.L
same,LDH,[2]; Post 30 min vortexing,80 IU/L
same,SGOT,[2]; Post 30 min vortexing,11 IU/L
same,SGPT,[2]; Post 30 min vortexing,24 IU/L
same,fIX,[2]; Post 30 min vortexing,76%
same,fV,[2]; Post 30 min vortexing,55%
same,fVIII,[2]; Post 30 min vortexing,57%
same,fibrinogen,[2]; Post 30 min vortexing,198 mg/dL
same,Alk. Phos,[2]; Pre vortexing,25 IU/.L
same,LDH,[2]; Pre vortexing,99 IU/L
same,SGOT,[2]; Pre vortexing,12 IU/L
same,SGPT,[2]; Pre vortexing,26 IU/L
same,fIX,[2]; Pre vortexing,98%
same,fV,[2]; Pre vortexing,95%
same,fVIII,[2]; Pre vortexing,97%
same,fibrinogen,[2]; Pre vortexing,247 mg/dL
same,"Alkaline phosphatase, % of its initial value",[2]; after vortexing,88%
same,"LDH, % of initial value",[2]; after vortexing,80%
same,"SGOT, % of initial value",[2]; after vortexing,91.6%
same,"SGPT, % of initial value",[2]; after vortexing,92%
same,"factor IX, % of initial value",[2]; after vortexing,77.6%
same,"factor V, % of initial value",[2]; after vortexing,58%
same,"factor VIII, % of initial value",[2]; after vortexing,59%
same,"fibrinogen, % of initial value",[2]; after vortexing,80%
same,Alk. Phos,[3]; 0 days at room temperature,23 IU/.L
same,LDH,[3]; 0 days at room temperature,97 IU/L
same,SGOT,[3]; 0 days at room temperature,10 IU/L
same,SGPT,[3]; 0 days at room temperature,20 IU/L
same,fIX,[3]; 0 days at room temperature,99%
same,fV,[3]; 0 days at room temperature,97%
same,fVIII,[3]; 0 days at room temperature,102%
same,fibrinogen,[3]; 0 days at room temperature,198 mg/dL
same,Alk. Phos,[3]; 7 days at room temperature,23 IU/.L
same,LDH,[3]; 7 days at room temperature,97 IU/L
same,SGOT,[3]; 7 days at room temperature,10 IU/L
same,SGPT,[3]; 7 days at room temperature,20 IU/L
same,fIX,[3]; 7 days at room temperature,100%
same,fV,[3]; 7 days at room temperature,95%
same,fVIII,[3]; 7 days at room temperature,100%
same,fibrinogen,[3]; 7 days at room temperature,198 mg/dL
same,Alk. Phos,[3]; 14 days at room temperature,22 IU/.L
same,LDH,[3]; 14 days at room temperature,98 IU/L
same,SGOT,[3]; 14 days at room temperature,11 IU/L
same,SGPT,[3]; 14 days at room temperature,20 IU/L
same,fIX,[3]; 14 days at room temperature,95%
same,fV,[3]; 14 days at room temperature,92%
same,fVIII,[3]; 14 days at room temperature,97%
same,fibrinogen,[3]; 14 days at room temperature,196 mg/dL
same,Alk. Phos,[3]; 21 days at room temperature,23 IU/.L
same,LDH,[3]; 21 days at room temperature,98 IU/L
same,SGOT,[3]; 21 days at room temperature,10 IU/L
same,SGPT,[3]; 21 days at room temperature,18 IU/L
same,fIX,[3]; 21 days at room temperature,89%
same,fV,[3]; 21 days at room temperature,88%
same,fVIII,[3]; 21 days at room temperature,96%
same,fibrinogen,[3]; 21 days at room temperature,196 mg/dL

# From patent US20090123907A1 (priority 2004, published 2009)
